Data on two molecules can be found in US20060134228A1, “Medicine for prevention of and treatment for amyloidosis” (Nipro Corporation, priority 2002, published 2006).

The target of the test is T1, transthyretin purified from human serum (Homo sapiens, UniProt P02766).
T1 construct: Using transthyretin purified from human serum as a transthyretin-containing solution; from tissue; host or cells: human serum
Put plainly: Quantitative ratio of transthyretin tetramer and transthyretin monomer (gel separation chromatography, Coomassie stain). The note with it: metal chloride 80 μg/mL, transthyretin 0.2 mg/mL, incubated at 37° C. The test is classed as biochemical. As to the method:
Using transthyretin purified from human serum as a transthyretin-containing solution, the purity thereof was confirmed by electrophoresis. The transthyretin-containing solution (10 mg/mL) was dissolved in a buffer solution to obtain a concentration of 0.2 mg/mL, and chromium chloride (80 μg/mL) was added. The pH of the buffer solution was adjusted to a pH necessary for each experiment using sodium hydroxide or hydrochloric acid. The above-described solution was incubated at 37° C. to produce amyloid fiber.
The transthyretin tetramer and the transthyretin monomer were separated by gel separation chromatography, immersed in the Coomassie Brilliant Blue stain, and examined for color developing intensity. Likewise, measurements were conducted for a comparative example wherein the metal compound added to the solution for incubation was changed from chromium chloride to aluminum chloride, and for a control not formulated with chromium chloride. Also, another test was conducted in the same manner, except that the metal compound added to the solution for incubation was replaced with 80 μg/mL chromium chloride and 80 μg/mL aluminum chloride (chromium chloride and aluminum chloride coexisted). Measurement results of fluorescence intensity and the quantitative ratio of the transthyretin tetramer and the transthyretin monomer are shown in FIG. 1.

As to `[Cl][Al]([Cl])[Cl]` [aluminum ion, aluminum chloride], the “decomposition from the transthyretin tetramer to the transthyretin monomer” value (shortened to “decomposition”) is on record as “promote the reaction of decomposing the transthyretin tetramer to the monomer”. Also, under “listed as aluminum”, the “decomposition” value was “promote the decomposition”.
In the case of `[Cl][Cr]([Cl])[Cl]` [trivalent chromium ion, chromium chloride], the “decomposition” value is given as “inhibit the reaction of decomposing the transthyretin tetramer to produce the monomer”.
